Patent US10578610B2, “Peptide regulators of mitochondrial fusion and methods of use” (priority 2016, dated 2020)
Ends that are not written are not given here.

What was measured:
Assay type in all cases: cell-based, murine
[1] = tested on: Mfn2 KO MEFs; assay: TAT-minipeptides in a cell model of Mfn2 deficiency; settings: 1 μM or 5 μM, 24 hours, data not shown
Text: Enhancing Mfn1- or Mfn2-mediated mitochondrial fusion with TAT-367-384 Gly has potential to alleviate mitochondrial morphological abnormalities like those evoked in CMT2A caused by nonsense or damaging non-synonymous Mfn2 mutations (Bombelli et al., 2014, JAMA Neurol, 71:1036-1042). It was reasoned that mitochondrial morphology would improve if endogenous normal Mfn1 or Mfn2 were assisted into their active conformations in which the D2 region is extended and/or available for interaction with the D2 region of a second Mfn protein (e.g., FIGS. 1B and 3B). This notion was tested in Mfn2 KO MEFs, a cell model of Mfn2 deficiency. WT MEFs and Mfn2 KO MEFs were treated with 1 μM or 5 μM TAT-367-384Gly peptide or TAT-398-418Gly peptide.

[2] = tested on: Opa1 and Drp1; assay: Immunoblot analysis of mitochondrial dynamics proteins in MEFs; settings: immunoblot 4 hours after application to MEFs; data not shown
[3] = tested on: Mfn null MEFs expressing Mfn2 K109A or Mfn2 AA; assay: TAT-minipeptides in Mfn null MEFs expressing Mfn2 mutants; settings: for mitochondrial morphology: Mfn null MEFs expressing Mfn2 AA
Text: The efficacy of the minipeptides to correct mitochondrial abnormalities in Mfn null MEFs was further evaluated. In this experiment, several Mfn2 mutants having well-characterized and diverse functional profiles were introduced into Mfn null MEFs. As shown above, mitochondria of MEFs lacking Mfn1 and Mfn2 are highly fragmented. Adenoviral reintroduction of WT Mfn2 corrected dysmorphology in Mfn null MEFs and was required for TAT minipeptides to alter mitochondrial fusion in these cells (FIGS. 12A-12B). By contrast, adenoviral expression of mouse Mfn2 K109A, a GTPase defective mutant (Detmer and Chan, 2007, J Cell Biol, 176:405-414), had no effect on mitochondrial fragmentation in Mfn null MEFs. […] Mitochondrial morphometry in Mfn null MEFs expressing fusion-impaired Mfn2 EE, which has glutamate substitutions to mimic phosphorylation at Mfn2 T111 and […], was more variable (FIG. 12A-12B).

[4] = tested on: MEFs; assay: Mitochondrial fusion by mixing of organellar contents after PEG-mediated cell fusion; settings: 1 μM for 6 hours
Method: MEFs or neurons were grown on chamber slides and infected with recombinant adenoviri for 48-72 hours unless otherwise indicated. MEFs were stained with MitoTracker Green (200 nM, Invitrogen M7514) and Blue Hoechst (10 mg/ml, Invitrogen H3570), with or without tetramethylrhodamine ethyl ester (TMRE; 200 nM, Invitrogen T-669). Neuronal mitochondria were labeled with adenoviral-expressed mitoGFP plus TMRE, or with adeno-mitoDsRed for time-lapse studies. […] Mitochondrial fusion was measured at 2 and 6 hours after PEG-mediated cell fusion of MEFs treated 48 hours previously with adeno-mitoGFP or adeno-mitoDsRed (Chen et al., 2005, J Biol Chem, 280:26185-26192). Laser confocal fluorescence was excited with 561 nm (MitoTracker Green, GFP, FITC), 637 nm (TMRE, LysoTracker Red, mcherry-Parkin, MitoTracker Orange) or 408 nm (Blue Hoechst) laser diodes. Image analysis—Mitochondrial aspect ratio was calculated using automated edge detection and Image J software (Song et al., 2015, Cell Metab, 21:273-285). Mitochondrial depolarization was calculated as % of green mitochondria visualized on MitoTracker Green and TMRE merged images, expressed as green/(green+yellow mitochondria)×100. Parkin aggregation was calculated as % of cells with mitochondrial clumping of mcherry-Parkin (Song et al., 2015, Cell Metab, 21:273-285). […]

[5] = Mfn null MEFs expressing only Mfn2 K109A

Row | Sequence | mitochondrial aspect ratio [1] | abundance of Opa1 and Drp1 [2] | mitochondrial morphology [3] | rate of mitochondrial content mixing (mitochondrial fusion) [4] | mitochondrial aspect ratio / mitochondrial pathology [3, 5] | mitochondrial clumping [3, 5]
1 | QDRLKFIDKQGELLAQDYKLRGGYGRKKRRQRRR [TAT-398-418Gly] | exaggerated mitochondrial shortening | without altering Mfn2 GTPase activity or influencing the abundance | mitochondrial shortening | completely suppressed mitochondrial fusion |  | 
2 | QIAEAVRGIMDSLHMAARGGYGRKKRRQRRR [TAT-367-384Gly] | normalized mitochondrial aspect ratio | without altering Mfn2 GTPase activity or influencing the abundance | mitochondrial hyper-elongation | more than doubled | did not correct mitochondrial pathology | mitochondrial clumping induced
